According to patent US20100120839A1, “PYRAZOLES USEFUL IN THE TREATMENT OF INFLAMMATION” (Biolipox AB, priority 2007, published 2010):
Read-outs that look alike come from different tables or passages of the source.

Target: T1, purified human 15-lipoxygenase (Homo sapiens, UniProt P16050)
T1 sequence (P16050 1-662): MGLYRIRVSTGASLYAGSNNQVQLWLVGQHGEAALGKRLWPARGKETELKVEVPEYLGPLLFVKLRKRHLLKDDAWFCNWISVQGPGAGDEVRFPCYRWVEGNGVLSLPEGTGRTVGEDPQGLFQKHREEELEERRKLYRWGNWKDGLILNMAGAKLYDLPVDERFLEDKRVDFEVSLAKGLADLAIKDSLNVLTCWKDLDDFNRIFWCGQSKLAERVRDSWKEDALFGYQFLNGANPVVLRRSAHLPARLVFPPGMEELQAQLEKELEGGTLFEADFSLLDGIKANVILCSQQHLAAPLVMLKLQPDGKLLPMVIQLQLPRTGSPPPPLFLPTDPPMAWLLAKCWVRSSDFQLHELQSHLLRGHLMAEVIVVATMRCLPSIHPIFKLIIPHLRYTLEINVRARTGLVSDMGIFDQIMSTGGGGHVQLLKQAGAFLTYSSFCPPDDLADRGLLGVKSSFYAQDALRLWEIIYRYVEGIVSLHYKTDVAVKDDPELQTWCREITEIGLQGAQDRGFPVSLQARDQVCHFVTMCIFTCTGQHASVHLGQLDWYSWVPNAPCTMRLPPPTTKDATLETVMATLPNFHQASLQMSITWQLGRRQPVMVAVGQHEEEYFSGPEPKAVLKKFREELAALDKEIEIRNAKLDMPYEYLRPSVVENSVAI
Assay: 15-lipoxygenase inhibition assay (arachidonic acid oxidation, reverse phase HPLC readout)
Format: biochemical
Method: The assay employed takes advantage of the ability of lipoxygenases to oxidize polyunsaturated fatty acids, containing a 1,4-cis-pentadiene configuration, to their corresponding hydroperoxy or hydroxyl derivatives. In this particular assay, the lipoxygenase was a purified human 15-lipoxygenase and the fatty acid was arachidonic acid. The assay is performed at room temperature (20-22° C.) and the following are added to each well in a 96-well microtiter plate:
a) 35 μL phosphate buffered saline (PBS) (pH 7.4); b) inhibitor (i.e. compound) or vehicle (0.5 μl DMSO); c) 10 μL of a 10× concentrated solution of 15-lipoxygenase in PBS. […] The plate is then incubated for 10 minutes at room temperature; e) the enzymatic reaction is terminated by the addition of 100 μl methanol; and f) the amount of 15-hydroperoxy-eicosatetraenoic acid or 15-hydroxy-eicosatetraenoic acid is measured by reverse phase HPLC.

[1] = arachidonic acid substrate, room temperature (20-22° C.), PBS pH 7.4, read-out: IC50

Row | IC50 [1] | SMILES | IC50
1 |  | c1ccc2oc(-c3cc[nH]n3)nc2c1 [Example 1, 2-(Pyrazol-3-yl)-benzoxazole] | 224 nM
2 | 33 nM | Clc1cc(-c2nc3ccccc3o2)n[nH]1 [Example 11, 2-(5-Chloropyrazol-3-yl)benzoxazole] | 
3 | 41 nM | Fc1cccc2nc(-c3cc(Cl)[nH]n3)oc12 [Example 15, 2-(5-Chloropyrazol-3-yl)-7-fluorobenzoxazole] | 
4 | 49 nM | Fc1cccc2oc(-c3cc(Cl)[nH]n3)nc12 [Example 17, 2-(5-Chloropyrazol-3-yl)-4-fluorobenzoxazole] | 
5 | 35 nM | Fc1cccc2oc(-c3n[nH]c(Cl)c3Cl)nc12 [Example 18, 2-(4,5-Dichloropyrazol-3-yl)-4-fluorobenzoxazole] | 
6 | 127 nM | Clc1[nH]nc(-c2nc3cccnc3o2)c1Cl [Example 32, 2-(4,5-Dichloropyrazol-3-yl)oxazolo[5,4-b]pyridine] | 
7 | 85 nM | FC(F)(F)c1cnc2oc(-c3n[nH]c(Cl)c3Cl)nc2c1 [Example 33, 2-(4,5-Dichloropyrazol-3-yl)-6-(trifluoromethyl)-oxazolo[5,4-b]pyridine] | 
